Reference: PMC7307906, “Macrocyclic Modalities Combining Peptide Epitopes and Natural Product Fragments” (Journal of the American Chemical Society, 2020)
Where a SMILES comes first, the peptide text is derived from it. Where no end group is shown, it is not given here. [ ]: non-standard residue; d: D form. N‑methyl fused di‑pyrrolidine (I) = not defined here; ortho ether aromatic unit (VIII) = not defined here; phenylmethanamine linker (IX) = not defined here; NP‑inspired fragment III = not defined here; pyrrolidine (IV) = not defined here; NMeF = CN[C@@H](Cc1ccccc1)C(=O)O; NMeL = CN[C@@H](CC(C)C)C(=O)O; NMeV = CN[C@H](C(=O)O)C(C)C

T1: SPSB2 (Homo sapiens, UniProt Q99619)
T1 chain: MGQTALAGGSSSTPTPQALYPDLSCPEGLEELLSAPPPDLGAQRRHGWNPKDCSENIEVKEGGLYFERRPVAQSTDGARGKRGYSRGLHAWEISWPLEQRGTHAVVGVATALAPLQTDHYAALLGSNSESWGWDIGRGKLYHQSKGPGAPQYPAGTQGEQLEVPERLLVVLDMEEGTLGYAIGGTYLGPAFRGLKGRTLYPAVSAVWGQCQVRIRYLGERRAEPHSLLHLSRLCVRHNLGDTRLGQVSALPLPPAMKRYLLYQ


Experiments:
[1] = target: T2, human MC1R (Homo sapiens, UniProt Q01726); test: Melanocortin receptor radioligand binding (SPA, [125I]-NDP-α-MSH displacement), MC1R; settings: competitive binding, mean (± SEM) of at least three independent experiments, read-out: IC50 hMC1R binding
T2 construct: expressed in transfected cells

[2] = target: T3, human MC3R (Homo sapiens, UniProt P41968); test: Melanocortin receptor radioligand binding (SPA, [125I]-NDP-α-MSH displacement), MC3R; settings: competitive binding, mean (± SEM) of at least three independent experiments, read-out: IC50 hMC3R binding
T3 construct: expressed in transfected cells

[3] = target: T4, human MC4R (Homo sapiens, UniProt P32245); test: Melanocortin receptor radioligand binding (SPA, [125I]-NDP-α-MSH displacement), MC4R; settings: competitive binding, mean (± SEM) of at least three independent experiments, read-out: IC50 hMC4R binding
T4 construct: expressed in transfected cells

[4] = target: T5, human MC5R (Homo sapiens, UniProt P33032); test: Melanocortin receptor radioligand binding (SPA, [125I]-NDP-α-MSH displacement), MC5R; settings: competitive binding, [125I]-NDP-α-MSH; mean (± SEM) of at least three independent experiments; read-out: IC50 hMC5R binding
T5 construct: expressed in transfected cells; host or cells: HEK293-6E suspension cells, transient expression; membranes

[5] = target: T2, human MC1R; test: cAMP assay (LANCE) in T-Rex-293 cells expressing MC1R; type: cell-based; settings: for EC50: mean (± SEM) of at least three independent experiments, read-out: EC50 hMC1R cAMP; for Emax: T-REx-293, read-out: % Effect hMC1R cAMP; for % Effect hMC1R cAMP at 10 µM: % effect at 10 µM, compounds not reaching an upper plateau (#)
[6] = target: T3, human MC3R; test: cAMP assay (LANCE) in T-Rex-293 cells expressing MC3R; type: cell-based; settings: for EC50: cAMP assay, mean (± SEM) of at least three independent experiments, read-out: EC50 hMC3R cAMP
[7] = target: T4, human MC4R; test: cAMP assay (LANCE) in T-Rex-293 cells expressing MC4R; type: cell-based; settings: for EC50: cAMP assay, mean (± SEM) of at least three independent experiments, read-out: EC50 hMC4R cAMP
[8] = target: T1, SPSB2; test: SPR
[9] = Emax (curve plateau), relative to NDP-α-MSH, NA = No Activity detected, threshold 20% effect

T4 sequence (P32245 whole entry): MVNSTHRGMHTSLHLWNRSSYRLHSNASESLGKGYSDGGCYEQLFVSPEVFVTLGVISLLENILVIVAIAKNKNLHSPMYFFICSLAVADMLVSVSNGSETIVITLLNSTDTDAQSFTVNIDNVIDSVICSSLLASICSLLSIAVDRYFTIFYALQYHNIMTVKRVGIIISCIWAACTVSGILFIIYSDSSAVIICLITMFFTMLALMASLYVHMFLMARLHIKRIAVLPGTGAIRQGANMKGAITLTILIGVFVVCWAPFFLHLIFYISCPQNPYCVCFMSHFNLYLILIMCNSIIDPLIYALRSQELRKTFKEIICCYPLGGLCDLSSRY
T3 sequence (P41968 whole entry): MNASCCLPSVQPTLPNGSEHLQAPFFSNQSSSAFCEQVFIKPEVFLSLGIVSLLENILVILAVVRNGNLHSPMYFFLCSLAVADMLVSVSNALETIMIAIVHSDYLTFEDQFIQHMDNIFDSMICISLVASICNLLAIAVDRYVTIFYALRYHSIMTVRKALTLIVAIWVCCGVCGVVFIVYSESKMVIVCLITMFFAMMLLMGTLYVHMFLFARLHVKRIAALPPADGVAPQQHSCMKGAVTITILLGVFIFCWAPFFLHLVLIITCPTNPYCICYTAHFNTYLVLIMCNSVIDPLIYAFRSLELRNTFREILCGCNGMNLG
T2 sequence (Q01726 whole entry): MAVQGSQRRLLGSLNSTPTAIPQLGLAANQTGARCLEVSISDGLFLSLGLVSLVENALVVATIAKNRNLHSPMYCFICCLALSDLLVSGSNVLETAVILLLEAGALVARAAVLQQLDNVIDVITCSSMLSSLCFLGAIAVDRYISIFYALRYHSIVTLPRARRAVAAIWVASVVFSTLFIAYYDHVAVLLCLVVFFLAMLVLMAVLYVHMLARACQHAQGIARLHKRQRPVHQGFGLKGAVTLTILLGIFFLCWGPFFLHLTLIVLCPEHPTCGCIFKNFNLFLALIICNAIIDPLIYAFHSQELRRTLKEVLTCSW
T5 sequence (P33032 whole entry): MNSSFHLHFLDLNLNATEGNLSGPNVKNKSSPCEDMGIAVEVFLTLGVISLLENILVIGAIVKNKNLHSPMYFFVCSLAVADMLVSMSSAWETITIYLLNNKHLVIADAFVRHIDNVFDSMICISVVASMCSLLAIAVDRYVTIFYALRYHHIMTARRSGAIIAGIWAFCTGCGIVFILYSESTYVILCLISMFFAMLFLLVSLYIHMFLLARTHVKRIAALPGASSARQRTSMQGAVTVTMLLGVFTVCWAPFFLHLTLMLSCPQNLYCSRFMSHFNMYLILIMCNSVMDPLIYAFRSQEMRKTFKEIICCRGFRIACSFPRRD

IC50 [1] [µM]	IC50 [2] [µM]	IC50 [3] [µM]	IC50 [4] [µM]	EC50 ([5]; cAMP assay) [µM]	EC50 [6] [µM]	EC50 [7] [µM]	Kd [8] [µM]	Molecule	further results
> 10	> 10	> 10	> 10	> 10	> 10	> 10		CN1C(=O)[C@H]2N[C@@H](c3ccc(cc3)C(=O)NCCCC[C@@H](C(=O)NCC(N)=O)NC(=O)[C@H](CC(N)=O)NC(=O)[C@@H](Cc3ccccc3)NC(=O)[C@@H](Cc3ccccc3)NC(=O)[C@H](CCCNC(=N)N)NC(=O)[C@@H]1Cc1ccccc1)[C@H]1C(=O)N(c3ccccc3)C(=O)[C@H]12 [K3-minor, [II-FRffNK ]G]	
58 ± 1	57 ± 1	> 100	16 ± 1	3.9 ± 0.5	6.4 ± 1.1	3.7 ± 0.2		COc1ccc(N2C(=O)[C@@H]3[C@H](C2=O)[C@H]2N[C@@H]3c3ccc(cc3)C(=O)NCCCC[C@@H](C(=O)NCC(N)=O)NC(=O)[C@H](CC(N)=O)NC(=O)[C@@H](Cc3ccccc3)NC(=O)[C@@H](Cc3ccccc3)NC(=O)[C@H](CCCNC(=N)N)NC(=O)[C@H](Cc3ccccc3)N(C)C2=O)cc1 [K4-major, [III-FRffNK ]G]	Emax [5]: 85%; % Effect hMC3R cAMP [6, 9]: 26%; % Effect hMC4R cAMP [7, 9]: 66%
> 100	> 100	> 100	91 ± 3	> 100	> 100	> 100		COc1ccc(N2C(=O)[C@@H]3[C@H](C2=O)[C@H]2N[C@@H]3C(=O)N(C)[C@@H](Cc3ccccc3)C(=O)N[C@@H](CCCNC(=N)N)C(=O)N[C@H](Cc3ccccc3)C(=O)N[C@H](Cc3ccccc3)C(=O)N[C@@H](CC(N)=O)C(=O)N[C@H](C(=O)NCC(N)=O)CCCCNC(=O)c3ccc2cc3)cc1 [K4-minor, [III-FRffNK ]G]	% Effect hMC1R cAMP at 100 µM ([5]; % effect at 100 µM, compounds not reaching an upper plateau (§)): 23%
> 10	> 10	> 10	> 10	> 10	> 10	> 10		COc1cc(N2C(=O)[C@@H]3[C@H](C2=O)[C@H]2N[C@@H]3c3ccc(cc3)C(=O)NCCCC[C@@H](C(=O)NCC(N)=O)NC(=O)[C@H](CC(N)=O)NC(=O)[C@@H](Cc3ccccc3)NC(=O)[C@@H](Cc3ccccc3)NC(=O)[C@H](CCCNC(=N)N)NC(=O)[C@H](Cc3ccccc3)N(C)C2=O)cc(OC)c1OC [K5-major, [XI-FRffNK ]G]	
> 10	> 10	> 10	> 10	> 10	> 10	> 10		CN1C(=O)[C@H]2N[C@@H](c3ccc(cc3)C(=O)NCCCC[C@@H](C(=O)N[C@@H](Cc3ccc(O)cc3)C(N)=O)NC(=O)[C@H](Cc3ccccc3)NC(=O)[C@H](Cc3ccccc3)NC(=O)[C@H](CCCNC(=N)N)NC(=O)[C@@H]1Cc1ccccc1)[C@H]1C(=O)N(c3ccccc3)C(=O)[C@H]12 [N1-major*, [II-FRFFK ]Y]	% Effect hMC1R cAMP at 10 µM [5]: 33%
> 100	> 100	> 100	38 ± 2	14 ± 4	> 100	> 100		CN1C(=O)[C@H]2N[C@@H](c3ccc(cc3)C(=O)NCCCC[C@@H](C(=O)NCC(N)=O)NC(=O)[C@H](Cc3ccccc3)NC(=O)[C@H](Cc3ccccc3)NC(=O)[C@H](CCCNC(=N)N)NC(=O)[C@@H]1Cc1ccccc1)[C@H]1C(=O)N(c3ccccc3)C(=O)[C@H]12 [N2-major*, [II-FRFFK ]G]	Emax [5]: 46%
> 100	> 100	> 100	74 ± 4	22 ± 3	> 100	> 100		CN1C(=O)[C@H]2N[C@@H](c3ccc(cc3)C(=O)NCCCC[C@@H](C(N)=O)NC(=O)[C@H](Cc3ccccc3)NC(=O)[C@H](Cc3ccccc3)NC(=O)[C@H](CCCNC(=N)N)NC(=O)[C@@H]1Cc1ccccc1)[C@H]1C(=O)N(c3ccccc3)C(=O)[C@H]12 [N3-major*, [II-FRFFK ]]	Emax [5]: 40%
> 10	> 10	> 10	> 10	> 10	> 10	> 10		CN1C(=O)[C@@H]2[C@H](C1=O)[C@H]1N[C@@H]2C(=O)N(C)[C@@H](Cc2ccccc2)C(=O)N[C@@H](CCCNC(=N)N)C(=O)N[C@H](Cc2ccccc2)C(=O)N[C@H](Cc2ccccc2)C(=O)N[C@H](C(=O)N[C@@H](Cc2ccc(O)cc2)C(N)=O)CCCCNC(=O)c2ccc1cc2 [O1-minor, [I-FRffK ]Y]	% Effect hMC1R cAMP at 10 µM [5]: 21%
2.5 ± 0.5	9.5 ± 0.9	7.1 ± 0.5	2.5 ± 0.3		> 100	> 100		C[C@@H]1NC(=O)[C@H](CC(N)=O)NC(=O)[C@@H](Cc2ccccc2)NC(=O)[C@@H](Cc2ccccc2)NC(=O)[C@H](CCCNC(=N)N)NC(=O)[C@@H](NC(=O)[C@@H](N)Cc2ccc(O)cc2)CSSC[C@@H](C(=O)N[C@@H](Cc2ccc(O)cc2)C(N)=O)NC(=O)[C@H](Cc2ccccc2)NC1=O [compound 29, Y[CRffNAFC]Y, reference compound] (HELM PEPTIDE1{Y.C.R.[dF].[dF].N.A.F.C.Y.[am]}$PEPTIDE1,PEPTIDE1,2:R3-9:R3$$$V2.0)	Emax [5]: 84%; agonistic activity at MC1R (in words) ([5]; cAMP assay, hMC1R): selective and almost full agonistic activity
							0.0071	Ac-KEEKDINNNVKKT [iNOS peptide 22]	
							0.078	[NMeV]DINNNKG-NH2 (bridge (positions not given here) via N‑methyl fused di‑pyrrolidine (I); reading uncertain; also: macrocycle via N-methyl fused di-pyrrolidine (I), minor diastereomer) [PepNat D13-minor]	
							0.015	[NMeV]DINNNKG-NH2 (bridge (positions not given here) via N‑methyl fused di‑pyrrolidine (I); reading uncertain; also: macrocycle via N-methyl fused di-pyrrolidine (I)) [PepNat D13-major]	
							0.087	[NMeF]DINNNK (linker (positions not given here) via phenylmethanamine linker (IX); reading uncertain; also: cyclized via phenylmethanamine linker (IX), attachment points not given here) [macrocycle 27]	
							0.309	[NMeF]DINNNKG-NH2 (bridge (positions not given here) via NP‑inspired fragment III; reading uncertain; also: macrocycle via NP-inspired fragment III) [PepNat D3-major]	
							0.018	[NMeF]DINNNKG-NH2 (bridge (positions not given here) via pyrrolidine (IV); reading uncertain; also: macrocycle via pyrrolidine (IV)) [PepNat D4-major]	
							0.0022	VDINNNKG (macrocycle via N-phenyl fused di-pyrrolidine (II), N-Me-Val) [PepNat D18-major]	
							0.175	DINNN (bridge (positions not given here) via ortho ether aromatic unit (VIII); reading uncertain; also: cyclized via ortho ether aromatic unit (VIII), attachment points not given here) [cyclic peptidomimetic 26]	
							0.033	[NMeF]DINNNKG-NH2 (bridge (positions not given here) via N‑methyl fused di‑pyrrolidine (I); reading uncertain; also: macrocycle via N-methyl fused di-pyrrolidine (I)) [PepNat D1-major]	
							0.127	[NMeL]DINNNKG-NH2 (bridge (positions not given here) via N‑methyl fused di‑pyrrolidine (I); reading uncertain; also: macrocycle via N-methyl fused di-pyrrolidine (I), minor diastereomer) [PepNat D12-minor]	
							0.139	VDINNNKG (macrocycle via N-phenyl fused di-pyrrolidine (II) minor diastereomer, N-Me-Val) [PepNat D18-minor]	
